From patent US6407071B1, “Method and composition for treating malignant cells” (Co-Enzyme Technology Ltd., priority 1998, dated 2002)
Several values for one entry are separate records, joined by “and”; a condition that tells them apart may be missing. Equal entries are not always repeated.

How the values were obtained:
prostate cancer = assay: Six month study of P.S.A. levels in prostate cancer patients: glyceraldehyde, Glycosole and the combination; type: in vivo, human; design: key to Patient dead (#): # Dead; P.S.A. Levels during 6 month from initiation of treatment, 1 mo. / P.S.A. Levels during 6 month from initiation of treatment, 2 mo. / P.S.A. Levels during 6 month from initiation of treatment, 3 mo. / P.S.A. Levels during 6 month from initiation of treatment, 4 mo. / P.S.A. Levels during 6 month from initiation of treatment, 5 mo. / P.S.A. Levels during 6 month from initiation of treatment, 6 mo.: unit not given here
Protocol: A six month study was conducted comparing the anti-cancer effect of Glycosole (Glyc., the glucuronide of para-methoxy-phenol), glyceraldehyde, and a combination of the two compounds. These compounds were administered to patients suffering from prostate cancer separately and together. All of the patients suffered from bone metastases and no longer responded to conventional hormone therapy. Patients were administered either 3 grams glyceraldehyde per day, 6 grams per day of Glycosole, or a combination of both agents.

human tumor cells = assay: Oxidizing agents found toxic to human tumor cells; type: cell-based
[1] = system: localized malignant melanomas; details: cited from earlier work
cancer cells = assay: Toxicity to cancer cells in vitro relative to para-methoxy phenol; type: cell-based; details: compared with para-methoxy phenol

With `O=CC(O)CO` (stereo not shown) [Glycer Aldehyde, glyceraldehyde] the “P.S.A. Levels during 6 month from initiation of treatment, 1 mo.” value (prostate cancer; 1 mo., single patients, bone metastases, glyceraldehyde 3 g/day, Glycosole 6 g/day or both) was 760 and 190 and 2250 and 340 and 910 and 150, the “P.S.A. Levels during 6 month from initiation of treatment, 2 mo.” value (prostate cancer; 2 mo., single patients, glyceraldehyde 3 g/day, Glycosole 6 g/day or both) was 680 and 180 and 1100 and 380 and 850 and 90 and the “P.S.A. Levels during 6 month from initiation of treatment, 3 mo.” value (prostate cancer; 3 mo., single patients, glyceraldehyde 3 g/day, Glycosole 6 g/day or both) was 600 and 150 and 1000 and 310 and 740 and 80. For the same compound, the “P.S.A. Levels during 6 month from initiation of treatment, 4 mo.” value (prostate cancer; 4 mo., single patients, glyceraldehyde 3 g/day, Glycosole 6 g/day or both) was 580 and 145 and 980 and 280 and 760 and 80, the “P.S.A. Levels during 6 month from initiation of treatment, 5 mo.” value (prostate cancer; 5 mo., single patients, glyceraldehyde 3 g/day, Glycosole 6 g/day or both) was 540 and 140 and 220 and 680 and 64 and the “P.S.A. Levels during 6 month from initiation of treatment, 6 mo.” value (prostate cancer; 6 mo., single patients, glyceraldehyde 3 g/day, Glycosole 6 g/day or both) was 420 and 100 and 180 and 360 and 60. The “P.S.A. Levels during 6 month from initiation of treatment, 10 mo.” value (prostate cancer; 10 mo., single patients) was 380 and 480 and 600, the “P.S.A. Levels during 6 month from initiation of treatment, 11 mo.” value (prostate cancer; 11 mo., single patients) was 920 and 700 and the “P.S.A. Levels during 6 month from initiation of treatment, 12 mo.” value (prostate cancer; 12 mo., single patients) was 846. For the same compound, the “Patient dead (#)” value (prostate cancer; marked in column 5 mo.) was “#”, the “Patient dead (#)” value (prostate cancer; marked in column 11 mo.) was “#” and the “Patient dead (#)” value (prostate cancer; marked in column 12 mo.) was “#”. The “Response of patients to the treatment” value (prostate cancer; prostate cancer with bone metastases, 3 grams glyceraldehyde per day, 6 grams per day of Glycosole, or both) was “None of the patients administered glyceraldehyde alone responded”.

In the case of `N[C@@H](Cc1ccc(O)c(O)c1)C(=O)O` [L-3,4-dihydroxyphenylalanine], the “Toxicity to human tumor cells” value (human tumor cells) is reported as “toxic to human tumor cells”.

In the case of `COC(=O)c1cc(O)c(O)c(O)c1` [methyl gallate], the “Toxicity to human tumor cells” value (human tumor cells) is reported as “toxic to human tumor cells”.

With `COc1ccc(O)c(C(C)(C)C)c1` [butylated hydroxyanisole] the “Toxicity to human tumor cells” value (human tumor cells) was “toxic to human tumor cells”.

For `Oc1ccc(O)cc1` [hydroquinone], the “Toxicity to human tumor cells” value (human tumor cells) was “toxic to human tumor cells”.

For `CCCOc1ccc(O)cc1` [4-propoxy phenol], the “Toxicity to human tumor cells” value (human tumor cells) was “toxic to human tumor cells”.

In the case of `N[C@@H](Cc1cc(O)c(O)cc1O)C(=O)O` [6-hydroxydopa, 3,4,6-trihydroxyphenylalanine], the “Toxicity to human tumor cells” value (human tumor cells) is reported as “toxic to human tumor cells”.

For `CCC(C)(C)c1ccc(O)cc1` [4-tert-amyl phenol], the “Toxicity to human tumor cells” value (human tumor cells) was “toxic to human tumor cells”.

In the case of `NCCc1ccc(O)c(O)c1` [dopamine, 3,4-dihydroxyphenethylanine], the “Toxicity to human tumor cells” value (human tumor cells) is reported as “toxic to human tumor cells”.

In the case of `COc1ccc(O)cc1` [4-hydroxyanisole], the “Toxicity to human tumor cells” value (human tumor cells) is given as “toxic to human tumor cells”, the “Effect on localized malignant melanomas” value ([1]; intra-arterial infusion) is given as “underwent regression” and the “Therapeutic effect in malignant melanoma” value ([1]; intravenous administration) is given as “not therapeutically effective”.

For `Oc1cccc(O)c1` [resorcinol], the “Toxicity to human tumor cells” value (human tumor cells) was “toxic to human tumor cells”.

In the case of 4-benzomethoxy phenol, the “Toxicity to human tumor cells” value (human tumor cells) is reported as “toxic to human tumor cells”.

With `N[C@@H](Cc1ccc(O)cc1)C(=O)O` [tyrosine] the “Toxicity to human tumor cells” value (human tumor cells) was “toxic to human tumor cells”.

With `CCC(C)(C)c1ccc(O[C@@H]2O[C@H](C(=O)O)[C@@H](O)[C@H](O)[C@H]2O)cc1` [4-tert-amyl phenyl glucuronide] the “Toxicity to cancer cells in vitro relative to para-methoxy phenol” value (cancer cells) was 5.5 times.
